Results as given in patent publication US12637410B2, “Vesicular monoamine transporter-2 ligands and their use in the treatment of psychostimulant abuse” (priority 2016, dated 2026).
Read-outs that look alike come from different tables or passages of the source.

Experiments:
VMAT2 = target: T1, VMAT2 (Rattus norvegicus, UniProt Q01827); assay: [3H]Dopamine ([3H]DA) uptake assay, vesicular preparation; format: biochemical
T1 construct: from tissue; host or cells: rat striatum, isolated synaptic vesicles
T1 sequence (Q01827 whole entry): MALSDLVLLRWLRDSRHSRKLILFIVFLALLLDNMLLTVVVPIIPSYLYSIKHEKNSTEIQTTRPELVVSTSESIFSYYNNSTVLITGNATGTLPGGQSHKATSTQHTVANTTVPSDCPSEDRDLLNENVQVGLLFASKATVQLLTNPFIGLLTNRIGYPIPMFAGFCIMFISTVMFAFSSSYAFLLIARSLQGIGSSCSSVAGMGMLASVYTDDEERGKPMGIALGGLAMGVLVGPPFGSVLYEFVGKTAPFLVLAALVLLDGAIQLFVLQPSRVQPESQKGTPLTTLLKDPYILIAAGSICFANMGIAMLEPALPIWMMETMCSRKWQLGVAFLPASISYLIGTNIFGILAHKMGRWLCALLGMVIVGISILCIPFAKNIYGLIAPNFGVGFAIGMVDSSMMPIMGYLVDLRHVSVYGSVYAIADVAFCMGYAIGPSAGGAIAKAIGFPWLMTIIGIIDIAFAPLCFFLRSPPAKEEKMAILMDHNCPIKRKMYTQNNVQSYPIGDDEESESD

hERG channel = target: T2, hERG channel (Homo sapiens, UniProt Q12809); assay: [3H]Dofetilide binding assay, HEK-293 cell membrane preparation; details: hERG Binding: Mean Ki (nM)
T2 construct: purchased; host or cells: HEK-293 cells stably expressing hERG (membranes)
T2 sequence (Q12809 whole entry): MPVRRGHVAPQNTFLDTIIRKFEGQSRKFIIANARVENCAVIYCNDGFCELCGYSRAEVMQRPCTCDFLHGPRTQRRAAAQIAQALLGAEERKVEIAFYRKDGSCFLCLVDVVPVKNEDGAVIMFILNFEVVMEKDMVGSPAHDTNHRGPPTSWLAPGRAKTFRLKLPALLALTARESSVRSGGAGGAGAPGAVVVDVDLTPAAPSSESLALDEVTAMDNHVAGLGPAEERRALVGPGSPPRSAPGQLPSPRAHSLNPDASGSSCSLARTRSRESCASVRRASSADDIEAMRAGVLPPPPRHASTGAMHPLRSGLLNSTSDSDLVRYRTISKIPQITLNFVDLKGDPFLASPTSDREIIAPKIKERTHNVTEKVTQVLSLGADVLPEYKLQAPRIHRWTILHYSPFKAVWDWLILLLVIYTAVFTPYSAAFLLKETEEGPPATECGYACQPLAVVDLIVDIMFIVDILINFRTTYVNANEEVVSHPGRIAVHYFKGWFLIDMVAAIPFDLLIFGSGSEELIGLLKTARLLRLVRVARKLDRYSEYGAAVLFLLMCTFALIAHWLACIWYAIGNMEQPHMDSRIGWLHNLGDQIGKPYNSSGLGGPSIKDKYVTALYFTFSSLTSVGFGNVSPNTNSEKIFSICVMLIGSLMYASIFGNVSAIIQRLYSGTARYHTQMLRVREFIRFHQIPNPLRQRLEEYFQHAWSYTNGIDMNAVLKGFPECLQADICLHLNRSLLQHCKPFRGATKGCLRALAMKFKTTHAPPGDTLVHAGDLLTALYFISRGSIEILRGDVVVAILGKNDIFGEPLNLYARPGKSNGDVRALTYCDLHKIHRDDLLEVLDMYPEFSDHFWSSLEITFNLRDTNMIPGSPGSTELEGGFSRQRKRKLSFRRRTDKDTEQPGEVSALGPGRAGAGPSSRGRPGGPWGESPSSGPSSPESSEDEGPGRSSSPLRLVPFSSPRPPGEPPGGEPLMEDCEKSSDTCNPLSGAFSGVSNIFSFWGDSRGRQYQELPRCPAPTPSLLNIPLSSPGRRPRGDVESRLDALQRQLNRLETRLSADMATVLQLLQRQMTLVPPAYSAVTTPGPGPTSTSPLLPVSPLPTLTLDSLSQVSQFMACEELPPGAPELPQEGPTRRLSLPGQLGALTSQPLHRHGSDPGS
Method: Membranes were suspended in assay buffer (50 mM Tris, 10 mM KCl, 1 mM MgCl2, pH 7.4) prior to the experiment. […] Nonspecific binding was determined in the presence of amitriptyline (1 mM). Samples were incubated for 1 hr. at 24° C., followed by rapid filtration.

[1] = Microsomal assays, rat liver microsomes; details: for CLint scaled at 0.08 µM: female, Sprague-Dawley, rat, pH 7.4; for Microsomal stability assays: Species/Half-life (hr) Rat: rat liver microsomes
Method: Each plate holds triplicate samples of two controls (0.4 mM) and up to 14 compounds (0.08 mM) in rat and human liver microsomes. Aliquots of each well of the plate (175 μl of each well) were transferred from the master plate into 5 assay plates. […] NADPH regenerating system solution A (6.05 ml, Fisher Scientific, #NC9255727) was combined with NADPH regenerating system solution B (1.21 ml, Fisher Scientific, #NC9016235) in potassium phosphate buffer (15.8 ml, 0.1 M, pH 7.4, 37° C.). The resulting NADPH solution (43.8 μl) was added to each well of all the 96-well assay plates and mixed with pipette briefly making the final protein and compound concentrations respectively: 0.5 mg/ml, 0.08 μM (0.4 μM for controls). Plates were sealed, and all plates except the 0-hr plate were incubated at 37° C., shaken at a speed of 60 rpm. A single assay plate was tested at each time point: 0.5 hr, 1 hr, 2 hr, and 4 hr. At each time point, 437.5 μL of pre-cooled internal standard was added each well of the plate to quench the reaction. […] 120 μl supernatant was transferred to a 96-well plate, centrifuged again and analyzed by UPLC-MS (Waters Inc., Milford, MA). The compounds and internal standard were detected by selected ion recording (SIR).
The amount of material was measured as a ratio of peak area to the internal standard and graphed. Using the slope from the initial linear portion of this curve, the degradation rate constant is calculated using equation [1]. The rate constant was then used to calculate the compounds half-life in plasma using equation [2].

[2] = target: dopamine transporter (DAT) (Rattus norvegicus, UniProt P23977); assay: [3H]DA uptake assay, synaptosomal preparation
Chain of dopamine transporter (DAT) (P23977 whole entry): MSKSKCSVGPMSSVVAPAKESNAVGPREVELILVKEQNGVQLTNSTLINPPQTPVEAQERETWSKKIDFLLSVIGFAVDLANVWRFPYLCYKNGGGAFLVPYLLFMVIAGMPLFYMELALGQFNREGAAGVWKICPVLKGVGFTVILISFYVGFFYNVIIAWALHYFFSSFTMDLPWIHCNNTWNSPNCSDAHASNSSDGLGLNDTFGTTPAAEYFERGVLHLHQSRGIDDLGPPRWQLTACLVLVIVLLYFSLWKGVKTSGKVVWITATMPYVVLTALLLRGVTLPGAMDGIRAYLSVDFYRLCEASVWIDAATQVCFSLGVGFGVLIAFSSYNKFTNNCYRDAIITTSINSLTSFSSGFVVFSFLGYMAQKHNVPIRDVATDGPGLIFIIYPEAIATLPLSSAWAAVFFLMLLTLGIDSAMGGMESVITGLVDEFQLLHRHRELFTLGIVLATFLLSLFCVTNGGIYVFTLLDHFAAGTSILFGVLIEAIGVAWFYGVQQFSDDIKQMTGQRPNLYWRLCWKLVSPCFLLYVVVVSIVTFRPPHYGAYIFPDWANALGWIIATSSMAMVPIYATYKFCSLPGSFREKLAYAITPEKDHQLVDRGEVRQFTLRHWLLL
Method: [^3H]DA and [3H]5-HT uptake into striatal synaptosomes was determined to evaluate compound inhibition of the dopamine transporter (DAT) and the serotonin transporter (SERT), respectively. […] Assays were performed in duplicate in a total volume of 500 μL (for DAT assays) or 250 μL (for SERT assays). Aliquots of the synaptosomal suspension (25 μL for DAT, 50 μL for SERT) were added to tubes containing assay buffer and various concentrations of analog (1 nM-100 μM), and incubated at 34° C. for 5 min. Nonspecific uptake was determined in the presence of nomifensine (10 μM) for DAT assays or fluoxetine (10 μM) for SERT assays. […] Samples were placed on ice, and 50 μL of 0.1 μM [^3H]DA (for DAT assays) or 25 μL of 0.1 μM [^3H]5-HT (for SERT assays) was added to each tube, and incubated for 10 min at 34° C. Reactions were terminated by addition of 3 mL of ice-cold assay buffer and subsequent filtration and radioactivity retained by the filters was determined by liquid scintillation spectrometry (Tri-Carb 2100TR liquid scintillation analyzer; PerkinElmer Life and Analytical Sciences, Boston, MA).

[3] = [3H]dofetilide binding, HEK-293 membranes, mean of n>=3 unless N given
[4] = [3H]DA uptake, rat vesicular preparation, mean of n>=3 unless N given, read-out: VMAT2 (rat) Inhibition: Mean Ki

Compound | Ki (VMAT2) | Ki (hERG channel; [3]) | other results
CC(Cc1ccc(Br)cc1)NCCCc1ccc(N)cc1 (stereo not shown) [Compound 240] | 48 nM | 1130 nM | –
CC(Cc1cccc(N)c1)NCCCc1ccc(F)cc1 (stereo not shown) [Compound 310] | 5 nM | – | CLint scaled at 0.08 µM [1]: 74 mL/min/kg; Ki (hERG channel; Table 4, mean, minimally n = 3): 2730 nM; Ki [2]: 2230 nM
CC(Cc1ccc(F)cc1)NCCCc1ccc(N(C)C)cc1 (stereo not shown) [Compound 156] | – | 49000 nM | –
CC(Cc1ccc(F)c(F)c1)NCCCc1ccc2cn[nH]c2c1 (stereo not shown) [Compound 233] | 33 nM | 483 nM | –
CC(Cc1ccc(F)cc1)NCCCc1cccnc1 (stereo not shown) [Compound 278] | 98 nM | 3980 nM | –
CC(Cc1ccc(F)c(F)c1)NCCCc1ccc2c(c1)[nH]c(=O)n2C (stereo not shown) [Compound 254] | 187 nM | – | –
CC(Cc1ccccc1)N(CCCc1ccc([N+](=O)[O-])cc1)C(=O)OCc1ccccc1 (stereo not shown) [Compound 289] | 2970 nM | – | –
CC(Cc1ccc([N+](=O)[O-])cc1)NCCCc1ccc(Br)cc1 (stereo not shown) [Compound 121] | – | – | Microsomal stability assays: Species/Half-life (hr) Rat [1]: 0.1 h
C[C@H](Cc1ccccc1)ONCCc1ccccc1 [Compound 296] | 20000 nM | – | –
CC(Cc1c[nH]c2ccccc12)NCCCc1ccc(F)cc1 (stereo not shown) [Compound 246] | 66 nM | 731 nM | –
CC(Cc1ccc(F)c(F)c1)NCCCc1ccccc1-c1ccnn1C (stereo not shown) [Compound 245] | 136 nM | 2240 nM | –
FCC(Cc1ccccc1)NCCCc1ccc(F)cc1 (stereo not shown) [Compound 101] | – | – | Ki (VMAT2; [4]): 17 nM
CC(Cc1ccc(F)cc1)NCCCc1ccccn1 (stereo not shown) [Compound 279] | 200 nM | 2400 nM | –
CC(Cc1ccc(F)c(F)c1)NCCCc1cccc(-c2ccnn2C)c1 (stereo not shown) [Compound 281] | 51 nM | 592 nM | –
CC(Cc1ccc(F)c(F)c1)NCCCc1ccc(Cl)cc1Cl (stereo not shown) [Compound 269] | 61 nM | 279 nM | –
CC(Cc1ccc(F)c(F)c1)NCCCc1ccc(C(N)=O)c(F)c1 (stereo not shown) [Compound 299] | 29 nM | – | CLint scaled at 0.08 µM [1]: 19 mL/min/kg; Ki (hERG channel; Table 4, mean, minimally n = 3): 12100 nM; Ki [2]: 4210 nM
FCC(Cc1ccccc1)NCCCc1ccccc1 (stereo not shown) [Compound 98] | – | – | Microsomal stability assays: Species/Half-life (hr) Rat [1]: 0.1 h
CC(Cc1ccc(NC=O)cc1)NCCCc1ccc(F)cc1 (stereo not shown) [Compound 88] | 12 nM | – | –
CC(Cc1ccc(F)cc1)NCCCc1ccc([N+](=O)[O-])c(C(F)(F)F)c1 (stereo not shown) [Compound 251] | 55 nM | 535 nM | –
CC(Cc1ccc(F)c(F)c1)NCCCc1ccc(NS(C)(=O)=O)cc1 (stereo not shown) [Compound 274] | 45 nM | 220 nM | –
NC(Cc1cn(Cc2ccccc2)cn1)C(=O)OCC(Cc1ccc(F)cc1)NCCCc1ccc(Br)cc1 (stereo not shown) [Compound 287] | 533 nM | – | –

Compound | Ki (VMAT2) | Ki (hERG channel; [3]) | other results
CC(Cc1ccc(F)c(F)c1)NCCCc1ccccc1-c1cccnc1 (stereo not shown) [Compound 282] | 88 nM | 364 nM | –
CC(Cc1ccc(F)c(F)c1)NCCCc1cccc(Cl)c1Cl (stereo not shown) [Compound 271] | 42 nM | 462 nM | –
CC(Cc1ccc(F)cc1)NCCCc1ccc(Cl)cc1 (stereo not shown) [Compound 188] | – | 500 nM | –
CC(Cc1ccc(F)c(F)c1)NCCCc1ccc2ncsc2c1 (stereo not shown) [Compound 252] | 67 nM | 1580 nM | –
CC(=O)Nc1ccc(CCCNC(C)Cc2ccc(Br)cc2)cc1 (stereo not shown) [Compound 276] | 24 nM | 3430 nM | –
CC(Cc1ccc(F)c(F)c1)NCCCc1ccccc1N (stereo not shown) [Compound 238] | 220 nM | 3250 nM | –
CC(Cc1ccccc1)N(CCCc1ccc(N)cc1)C(=O)OCc1ccccc1 (stereo not shown) [Compound 291] | – | – | Ki (VMAT2; [4]): 3100 nM
CC(Cc1ccc(F)c(F)c1)NCCCc1ccc(Cl)c(Cl)c1 (stereo not shown) [Compound 272] | 57 nM | 462 nM | –
CC(Cc1ccccc1)N(CCCc1ccc(I)cc1)C(=O)OCc1ccccc1 (stereo not shown) [Compound 290] | – | – | Ki (VMAT2; [4]): 4800 nM
CC(Cc1ccccc1)N(CCCc1ccc(O)cc1)C(=O)OC(C)(C)C (stereo not shown) [Compound 288] | > 100000 nM | – | –
CC(Cc1ccc2nccnc2c1)NCCCc1ccc(F)cc1 (stereo not shown) [Compound 308] | 13 nM | – | CLint scaled at 0.08 µM [1]: 56 mL/min/kg; Ki (hERG channel; Table 4, mean, minimally n = 3): 1900 nM; Ki [2]: 2930 nM
CC(Cc1ccc(F)c(F)c1)NCCCc1cccc(-c2cccnc2)c1 (stereo not shown) [Compound 283] | 41 nM | 182 nM | –
CC(Cc1ccc(F)c(F)c1)NCCCc1ccc(C(=O)O)cc1 (stereo not shown) [Compound 257] | 6480 nM | > 34700 nM | –
CC(Cc1cccc(NC(N)=O)c1)NCCCc1ccc(F)cc1 (stereo not shown) [Compound 306] | 9 nM | – | CLint scaled at 0.08 µM [1]: 47 mL/min/kg; Ki (hERG channel; Table 4, mean, minimally n = 3): 2750 nM; Ki [2]: 2970 nM
CC(Cc1c[nH]c2ccccc12)NCCCc1ccc(F)cc1 (stereo not shown) [Compound 277] | – | 732 nM | Ki (VMAT2; read-out: VMAT2 (rat) Inhibition: Mean Ki, [3H]DA uptake, rat vesicular preparation, mean of n>=3 unless N given): 66 nM
CC(Cc1ccc(F)cc1)NCCCc1ccc(NS(C)(=O)=O)cc1 (stereo not shown) [Compound 275] | 53 nM | 308 nM | –
CC(C)C(Cc1ccc(F)cc1)NCCCc1ccc(Br)cc1 (stereo not shown) [Compound 140] | – | – | Microsomal stability assays: Species/Half-life (hr) Rat [1]: 0.1 h
CC(Cc1ccc(F)c(F)c1)NCCCc1ccc2ncoc2c1 (stereo not shown) [Compound 256] | 50 nM | 4880 nM | –
O=C(O)C(Cc1ccc(F)cc1)NCCCc1ccc(Br)cc1 (stereo not shown) [Compound 286] | 3130 nM | – | –
CC(Cc1ccc(F)cc1)NCCCc1ccc(Cl)c(N)c1 (stereo not shown) [Compound 242] | 38 nM | 1440 nM | –
CC(C)C(Cc1ccc(F)cc1)NCCCc1ccccc1 (stereo not shown) [Compound 136] | 460 nM | – | –

Compound | Ki (VMAT2) | Ki (hERG channel; [3]) | other results
CC(Cc1ccc(F)c(F)c1)NCCCc1ccc(C(C)(C)C)cc1 (stereo not shown) [Compound 264] | 209 nM | 2190 nM | –
CC(Cc1ccc(F)cc1)NCCCc1ccc2[nH]ccc2c1 (stereo not shown) [Compound 56] | – | 1260 nM | Microsomal stability assays: Species/Half-life (hr) Rat [1]: 0.1 h
CC(Cc1ccc(F)c(F)c1)NCCCc1cccc(C(F)(F)F)c1 (stereo not shown) [Compound 250] | 39 nM | 4100 nM | –
CC(Cc1ccc(F)c(F)c1)NCCCc1cccc(Cl)c1 (stereo not shown) [Compound 267] | 19 nM | 1000 nM | –
CC(Cc1ccc(F)c(F)c1)NCCCc1ccc(-c2ccnn2C)cc1 (stereo not shown) [Compound 244] | 118 nM | 1030 nM | –
CSc1ccc(CCCNC(C)Cc2ccc(F)c(F)c2)cc1 (stereo not shown) [Compound 261] | 32 nM | 316 nM | –
CC(Cc1ccc(F)c(F)c1)NCCCc1cccc(N(C)C)c1 (stereo not shown) [Compound 266] | 171 nM | 2460 nM | –
CC(Cc1ccc(F)cc1)NCCCc1ccccc1 (stereo not shown) [Compound 126] | – | – | Microsomal stability assays: Species/Half-life (hr) Rat [1]: 0.1 h
COc1ccc(CCCNC(C)Cc2ccncc2)cc1 (stereo not shown) [Compound 172] | – | – | Microsomal stability assays: Species/Half-life (hr) Rat [1]: 0.1 h
CC(Cc1ccc(F)c(F)c1)NCCCc1ccc(Cl)c(C(F)(F)F)c1 (stereo not shown) [Compound 273] | 538 nM | 1220 nM | –
CC(Cc1ccc(F)c(F)c1)NCCCc1ccc2c(c1)C(=O)OC2 (stereo not shown) [Compound 253] | 268 nM | – | –
CC(Cc1ccc(F)c(F)c1)NCCCc1ccc(OC(C)C)cc1 (stereo not shown) [Compound 259] | 104 nM | 818 nM | –
CC(Cc1ccc(F)c(F)c1)NCCCc1ccccc1Cl (stereo not shown) [Compound 268] | 28 nM | 233 nM | –
CC(Cc1ccc(F)c(F)c1)NCCCc1ccnc(C(F)(F)F)c1 (stereo not shown) [Compound 247] | 349 nM | – | –
CC(Cc1ccc(F)c(F)c1)NCCCc1cccc2ncoc12 (stereo not shown) [Compound 255] | 54 nM | 3370 nM | –
CC(Cc1ccc(F)c(F)c1)NCCCc1cc(Cl)cc(Cl)c1 (stereo not shown) [Compound 270] | 38 nM | 1500 nM | –
CC(Cc1ccc(F)cc1)NCCCc1cccc(N)c1 (stereo not shown) [Compound 241] | 106 nM | 6390 nM | –
CC(Cc1ccc(F)c(F)c1)NCCCc1cccc(N)c1 (stereo not shown) [Compound 265] | 202 nM | 5560 nM | –
CC(Cc1ccccc1)ONCCc1ccccc1 (racemic) [Compound 295] | 41300 nM | – | –
CC(Cc1ccc(F)cc1)NCCCc1c[nH]c2ccccc12 (stereo not shown) [Compound 91] | – | – | Microsomal stability assays: Species/Half-life (hr) Rat [1]: 0.1 h
CC(Cc1ccc(F)c(F)c1)NCCCc1cccc(S(N)(=O)=O)c1 (stereo not shown) [Compound 236] | 99 nM | 2010 nM | –
